Laboratory results as given in US7648976B2, “17-allylamino-17-demethoxygeldanamycin polymorphs and formulations” (Bristol-Myers Squibb Company, priority 2005, dated 2010).
Entries after “also recorded” stand apart in the source; their conditions may differ.

What was measured:
[1] = Effect of 17-AAG starting polymorph on formulation properties; format: physicochemical; conditions: non-sterile formulation made by procedure of Example 7 from the named polymorph
Description: Particle size distribution was determined by dynamic light scattering with a Nanotract 250 particle size analyzer (Microtrac Inc., Montgomeryville, Pa.). The Nanotrac 250 settings were configured for measuring the PSD (volume distribution) of “Irregular” Shaped particles of “Absorbing” Transparency in a fluid with characteristics of water (Refractive Index: 1.333, Viscosity at 20° C.: […], Viscosity at 30° C.: 1.002 cP). A background signal was measured using 5% Dextrose for Injection (D5W). Then, the nanoparticle formulation was diluted 10 to 20-fold into D5W and mixed well. The PSD of the diluted sample was measured as the average of five replicate 5-minute analyses and reported in histogram format as a function of particle size. While the PSD reflects the range and frequency of particle sizes, other characteristics of the PSD were used for quantitation. The D50 is the volume percentile corresponding to the particle size larger than 50% of the total particle volume (i.e. the median particle size). The D90 is the volume percentile corresponding to the particle size larger than 90% of the total particle volume and is a measure of the largest particles in the dispersion. The particle size distribution measured by dynamic light scattering techniques was supplemented with SEM images, acquired by techniques established in the art. The particle sizes determined via the SEM images were in general agreement with those determined by light scattering.
17-AAG (purified Polymorph C, 1.25 g) was mixed with WFI (3.62 g) and a solution of polysorbate 80 (2.5 g of a 10 weight % solution in WFI), an aqueous suspension of soybean phosphatidylcholine (0.63 g of a 10 weight % suspension in WFI), and a solution of sucrose (10 g of a 25 weight % solution in WFI). The mixture was loaded into the reservoir of a Microfluidics Model 110S microfluidizer containing 7 g WFI set up as described in the previous example and processed under the same conditions. This procedure yielded a formulation having a 17-AAG concentration of approximately 50 mg/mL in an aqueous medium having approximately 1.0 weight % polysorbate 80, 0.25 weight % soy phosphatidylcholine, and 10 weight % sucrose, with a 17-AAG particle size distribution of below 1 micron with median particle size of 300 nm volume distribution.
Non-sterile formulations of 17-AAG were made with other polymorphs using the procedure of Example 7 and compared against formulations made with purified Polymorph C.

[2] = Polymorph stability to heat and humidity (VT-XRPD, DSC); format: physicochemical; conditions: for polymorph conversion upon heating: VT-XRPD and/or DSC
Source text: 17-AAG is polymorphic and exists in multiple forms, many of which are solvates. We have generated many polymorphs using a variety of solvents and crystallization conditions. The polymorphs were characterized by techniques such as XRPD, DSC, infrared spectroscopy, gravimetric vapor sorption (GVS), ^1H-NMR, polarized light microscopy (PLM), and thermogravimetric analysis (TGA). We grouped the polymorphs according to similarities in XRPD data, with summary descriptions provided below. Polymorphs that are solvated are referred to by group and solvate names, as in “Polymorph A (DMF solvate)” or “the DMF solvate of Polymorph A”. • Group A The N,N-dimethylformamide (DMF), ethyl acetate (EtOAc), and methyl isobutyl ketone (MIBK) solvates of Polymorph A all have XRPD peaks at about 5.6, 7.0, 9.2, 11.2, 16.4, and 17.9 degrees 2θ (the first four being its lowest angle peaks). […] It has characteristic XRPD peaks at about 6.4, 8.3, 9.6, 13.3, 14.9, 15.7, 19.1, and 20.8 degrees 2θ. […] Typically, this polymorph group is prepared using high boiling solvents. After melting, these polymorphs exist in a molten state until decomposition at about 220° C.

Question: Which Consistency ([1]; listed as Amorphous (1st run)) does the source give for `C=CCNC1=C2C[C@@H](C)C[C@H](OC)[C@H](O)[C@@H](C)/C=C(\C)[C@H](OC(N)=O)[C@@H](OC)/C=C\C=C(/C)C(=O)NC(=CC1=O)C2=O` [Amorphous, 17-allylamino-17-demethoxygeldanamycin] here?
Answer: The Consistency was “Paste-like”.

Question: And the Remarks ([1]; listed as Amorphous (1st run))?
Answer: The Remarks was “Does not form stable”.

Question: What about the Consistency ([1]; listed as Amorphous (2nd run)) of the same compound?
Answer: Its Consistency is “Paste-like”.

Question: And the Remarks ([1]; listed as Amorphous (2nd run))?
Answer: The Remarks was “Does not form stable”.

Question: For `C=CCNC1=C2C[C@@H](C)C[C@H](OC)[C@H](O)[C@@H](C)/C=C(\C)[C@H](OC(N)=O)[C@@H](OC)/C=C\C=C(/C)C(=O)NC(=CC1=O)C2=O` [Polymorph A, 17-allylamino-17-demethoxygeldanamycin], which “polymorph conversion upon heating” value [2] is on record?
Answer: The value was “converted to the more stable Polymorph C”.

Question: Which Consistency ([1]; listed as B (1st run)) does the source give for `C=CCNC1=C2C[C@@H](C)C[C@H](OC)[C@H](O)[C@@H](C)/C=C(\C)[C@H](OC(N)=O)[C@@H](OC)/C=C\C=C(/C)C(=O)NC(=CC1=O)C2=O` [Polymorph B, 17-allylamino-17-demethoxygeldanamycin] here?
Answer: Its Consistency is “Highly viscous”.

Question: And the D50 ([1]; listed as B (1st run))?
Answer: Its D50 is 1.8 μm.

Question: And the Consistency ([1]; listed as B (2nd run))?
Answer: Its Consistency is “Highly viscous”.

Question: What about the D50 ([1]; listed as B (2nd run)) of the same compound?
Answer: Its D50 is 2.0 μm.

Question: What about the “polymorph conversion upon heating” value [2] of the same compound?
Answer: The value was “converted to Polymorph C”.

Question: For `C=CCNC1=C2C[C@@H](C)C[C@H](OC)[C@H](O)[C@@H](C)/C=C(\C)[C@H](OC(N)=O)[C@@H](OC)/C=C\C=C(/C)C(=O)NC(=CC1=O)C2=O` [Polymorph C, 17-allylamino-17-demethoxygeldanamycin], which Consistency [1] is on record?
Answer: The Consistency was “Water-like”.

Question: What about the D50 [1] of the same compound?
Answer: The D50 was 0.28 μm.

Question: And the Remarks [1]?
Answer: Its Remarks is “Stable nanoparticle”.

Question: What about the “polymorph conversion upon heating” value [2] of the same compound?
Answer: The value was “does not convert to any other polymorph upon heating”.

Question: And the “relative stability among 17-AAG polymorphs” value ([2]; moisture/humidity and heat)?
Answer: Its value is “the most stable to moisture and heat; also recorded: the most stable to heat and humidity”.

Question: Which “polymorph conversion upon heating” value [2] does the source give for `C=CCNC1=C2C[C@@H](C)C[C@H](OC)[C@H](O)[C@@H](C)/C=C(\C)[C@H](OC(N)=O)[C@@H](OC)/C=C\C=C(/C)C(=O)NC(=CC1=O)C2=O` [Polymorph D (dichloromethane solvate), 17-allylamino-17-demethoxygeldanamycin] here?
Answer: The value was “converts to Polymorph C”.

Question: With `C=CCNC1=C2C[C@@H](C)C[C@H](OC)[C@H](O)[C@@H](C)/C=C(\C)[C@H](OC(N)=O)[C@@H](OC)/C=C\C=C(/C)C(=O)NC(=CC1=O)C2=O` [Polymorph E, 17-allylamino-17-demethoxygeldanamycin] as the compound, how does the “polymorph conversion under humidity” value ([2]; 40° C. and 70% relative humidity (RH)) read?
Answer: The value was “conversion to Polymorph C is observed”.

Question: Which Consistency [1] does the source give for `C=CCNC1=C2C[C@@H](C)C[C@H](OC)[C@H](O)[C@@H](C)/C=C(\C)[C@H](OC(N)=O)[C@@H](OC)/C=C\C=C(/C)C(=O)NC(=CC1=O)C2=O` [Polymorph G, 17-allylamino-17-demethoxygeldanamycin] here?
Answer: Its Consistency is “Water-like”.

Question: And the D50 [1]?
Answer: Its D50 is 0.36 μm.

Question: What about the “polymorph conversion upon heating” value [2] of the same compound?
Answer: Its value is “Heating converts Polymorph G to Polymorph C”.
